EP4700025A1, “AMIDE COMPOUND, PHARMACEUTICAL COMPOSITION COMPRISING SAME, AND USE THEREOF” (Suzhou Genhouse Bio Co., Ltd., priority 2023, dated 2024)
Read-outs that look alike come from different tables or passages of the source. Each block holds one compound with its values, some of them ahead of it.

What was measured:
SDMA [1] = test: SDMA Inhibition Assay in HCT-116-MTAP^-/- cells; format: cell-based; conditions: Homo sapiens, 96 hours
A549 = test: CCK8 proliferation inhibition, A549; format: cell-based; conditions: Homo sapiens, 192 h, CCK8, 8 days after drug treatment
HCT-116-MTAP^-/- = test: CCK8 proliferation inhibition, HCT-116-MTAP^-/-; format: cell-based; conditions: Homo sapiens, 192 h; HCT-116-MTAP^-/- (MTAP-deficient); CCK8, 8 days after drug treatment
HCT-116 = test: CCK8 proliferation inhibition, HCT-116; format: cell-based; conditions: Homo sapiens, 192 h, CCK8, 8 days after drug treatment
CYP450 3A4 = molecular target: T1, CYP450 3A4 (Homo sapiens, UniProt P08684); test: Inhibition of human liver microsome CYP450 enzyme 3A4; format: in vitro ADME
T1 construct: from tissue; host or cells: human liver microsomes
Procedure: 100 mM K-Buffer: 9.5 mL of stock solution A was mixed with 40.5 mL of stock solution B, the total volume was adjusted to 500 mL with ultrapure water, and the buffer was titrated to pH 7.4 with KOH or H3PO4. • Starting material A (1 M potassium dihydrogen phosphate): 136.5 g of potassium dihydrogen phosphate in 1 L of water; • Stock solution B ([…]): 174.2 g of potassium dihydrogen phosphate in 1 L of water.
The test substance powder was prepared into a stock solution at a certain concentration with DMSO or another organic solvent, which was then further diluted with a suitable organic solvent.
The liver microsomal in vitro incubation system for the CYP450 enzyme metabolism phenotype study was a biochemical reaction of the prepared liver microsomes supplemented with a redox coenzyme and an enzyme-specific selective inhibitor under simulated physiological temperature and physiological environment conditions.
The concentration of the parent drug or a metabolite thereof in the incubation solution was determined by LC-MS/MS. and the IC50 value was calculated.

[2] = Pharmacokinetic assay in rats; format: in vivo, SD rats; conditions: rat; for AUC(0-inf) / AUC(0-t) / C0 / MRT inf / Vd / Cmax / Tmax: plasma; for MRT inf: read-out: MRT(0-∞); for Vd: read-out: Vz
Procedure: In this experimental example, the pharmacokinetic behavior of the test compounds after administration by intravenous injection (IV) and oral gavage (PO) in SD rats was tested.
On the day of administration, rats were weighed for actual body weight, and the administration volume was calculated. Each compound was tested in two groups with 3 rats in each group; one group was subjected to administration by single intravenous injection, and the other group was subjected to administration by single oral gavage. The whole blood samples were collected via the jugular vein at prescribed time points (0.25 h, 0.5 h, 1 h, 2 h, 4 h, 8 h, and 24 h after administration). After the blood sample collection, the samples were immediately transferred to labeled commercial sample tubes containing K2-EDTA (0.85-1.15 mg), followed by centrifugation (3200× g, 4 °C, 10 min) and plasma collection. The plasma was transferred to a pre-cooled centrifuge tube, frozen in dry ice, and then stored in an ultra-low temperature freezer at -60 °C or lower until the LC-MS/MS analysis was performed.
Plasma concentrations were determined by the LC-MS/MS method. Plasma drug concentration data for the compounds were processed using a non-compartmental model in the WinNonlin Version 6.3 (Pharsight, Mountain View, CA) pharmacokinetic software. The relevant pharmacokinetic parameters were calculated by a linear-log trapezoidal method.

SDMA [3] = test: SDMA Inhibition Assay in A549 cells; format: cell-based; conditions: Homo sapiens, A549, 96 hours
[4] = PO 10mpk (IV reference 2mpk; 0.2mpk for I-7)

T1 sequence (P08684 whole entry): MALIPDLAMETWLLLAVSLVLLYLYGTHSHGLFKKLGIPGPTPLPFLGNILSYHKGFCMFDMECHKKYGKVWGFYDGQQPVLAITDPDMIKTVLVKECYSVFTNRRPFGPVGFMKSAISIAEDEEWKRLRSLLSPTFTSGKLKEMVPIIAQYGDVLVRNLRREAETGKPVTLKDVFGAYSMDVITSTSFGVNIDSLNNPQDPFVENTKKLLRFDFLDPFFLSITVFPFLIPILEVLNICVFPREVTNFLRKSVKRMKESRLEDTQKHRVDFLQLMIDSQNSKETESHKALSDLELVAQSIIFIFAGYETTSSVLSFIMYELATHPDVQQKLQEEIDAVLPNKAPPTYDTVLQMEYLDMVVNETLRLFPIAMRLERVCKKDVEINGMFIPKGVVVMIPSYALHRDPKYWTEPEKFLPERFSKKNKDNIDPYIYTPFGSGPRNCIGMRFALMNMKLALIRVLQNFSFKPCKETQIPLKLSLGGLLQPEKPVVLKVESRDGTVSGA

SMILES: Cn1ncc2c(N)nc3cc(F)c(C(=O)N4CCOC[C@@H]4c4ccc5c(c4)OC(F)(F)O5)cc3c21 [Example I-7]
- EC50 (SDMA [1]): 2 nM
- EC50 (A549): 34.7 nM
- EC50 (HCT-116-MTAP^-/-): 6.6 nM
- EC50 (HCT-116): 1160 nM
- IC50 (CYP450 3A4; human, microsomes, pH 7.4): > 10000 nM
- AUC(0-inf) ([2]; 0.2 mg/kg, IV 0.2mpk): 0.22 µM·h
- AUC(0-t) ([2]; 0.2 mg/kg, IV 0.2mpk): 0.148 µM·h
- C0 ([2]; 0.2 mg/kg, IV 0.2mpk): 176 nM
- MRT inf ([2]; 0.2 mg/kg, IV 0.2mpk): 1.8 h
- Vd ([2]; 0.2 mg/kg, IV 0.2mpk): 3.5 L/kg
- AUC(0-inf) ([2]; 10 mg/kg, PO 10mpk): 9.6 µM·h
- AUC(0-t) ([2]; 10 mg/kg, PO 10mpk): 6.58 µM·h
- Cmax ([2]; 10 mg/kg, PO 10mpk): 781 nM
- Tmax ([2]; 10 mg/kg, PO 10mpk): 4.3 h
- MRT inf ([2]; 10 mg/kg, PO 10mpk): 9.9 h
- CLz ([2]; IV 0.2mpk): 31.7 mL/min/kg
- R_AUC(t/∞) ([2]; IV 0.2mpk): 67%
- t1/2z ([2]; IV 0.2mpk): 1.3 h
- R_AUC(t/∞) ([2]; PO 10mpk): 76.9%
- t1/2z ([2]; PO 10mpk): 8.1 h
- F [2, 4]: 89.1%
- EC50 (SDMA [3]): 1.2 nM

SMILES: Cn1ncc2c(N)nc3cnc(C(=O)N4CCOC[C@@H]4c4ccc5c(c4)OC(F)(F)O5)cc3c21 [Example I-38]
- EC50 (SDMA [1]): 1.5 nM
- EC50 (A549): 53.7 nM
- EC50 (HCT-116-MTAP^-/-): 7.4 nM
- EC50 (HCT-116): 313 nM
- IC50 (CYP450 3A4; human, microsomes, pH 7.4): > 10000 nM
- AUC(0-t) ([2]; 2 mg/kg, IV 2mpk): 4 µM·h
- AUC(0-t) ([2]; 100 mg/kg, PO 100mpk): 199 µM·h
- Cmax ([2]; 100 mg/kg, PO 100mpk): 10200 nM
- F ([2]; PO 100mpk vs IV 2 mpk): 99%
- EC50 (SDMA [3]): 1.7 nM

- EC50 (SDMA [1]): 1.2 nM
- EC50 (A549): 24.6 nM
- EC50 (HCT-116-MTAP^-/-): 3.8 nM
- EC50 (HCT-116): 928 nM
- IC50 (CYP450 3A4; human liver microsomes, 3A4, read-out: IC50): > 10000 nM
- AUC(0-inf) ([2]; SD, 2 mg/kg, IV 2mpk): 2.43 µM·h
- AUC(0-t) ([2]; SD, 2 mg/kg, IV 2mpk): 2.15 µM·h
- C0 ([2]; SD, 2 mg/kg, IV 2mpk): 1140 nM
- MRT inf ([2]; SD, 2 mg/kg, IV 2mpk): 3.1 h
- Vd ([2]; SD, 2 mg/kg, IV 2mpk): 5.6 L/kg
- AUC(0-inf) ([2]; SD, 10 mg/kg, PO 10mpk): 13.2 µM·h
- AUC(0-t) ([2]; SD, 10 mg/kg, PO 10mpk): 9.06 µM·h
- Cmax ([2]; SD, 10 mg/kg, PO 10mpk): 808 nM
- Tmax ([2]; SD, 10 mg/kg, PO 10mpk): 4.7 h
- MRT inf ([2]; SD, 10 mg/kg, PO 10mpk): 13.2 h
- CLz ([2]; IV 2mpk): 31.7 mL/min/kg
- R_AUC(t/∞) ([2]; IV 2mpk): 88.8%
- t1/2z ([2]; IV 2mpk): 2.3 h
- R_AUC(t/∞) ([2]; PO 10mpk): 71.5%
- t1/2z ([2]; PO 10mpk): 9.3 h
- F [2, 4]: 84%
- EC50 (SDMA [3]): 0.8 nM
SMILES: Cn1ncc2c(N)nc3cc(F)c(C(=O)N(Cc4ccc5c(c4)OC(F)(F)O5)C4CC4)cc3c21 [Example I-16]
